Test results published in US20260116910A1, “POLYCYCLIC COMPOUNDS AND METHODS THEREOF” (HEPAITECH (BEIJING) BIOPHARMA TECHNOLOGY CO., LTD., priority 2021, published 2026).
Read-outs that look alike come from different tables or passages of the source.

Key:
human FXR (NR1H4) = target: T1, human FXR (NR1H4) (Homo sapiens, UniProt Q96RI1); assay: Human FXR (NR1H4) agonist assessment, FXRE-NanoLuc reporter in HEK293T cells; assay type: cell-based
T1 sequence (Q96RI1 1-476 isoform Q96RI1-1): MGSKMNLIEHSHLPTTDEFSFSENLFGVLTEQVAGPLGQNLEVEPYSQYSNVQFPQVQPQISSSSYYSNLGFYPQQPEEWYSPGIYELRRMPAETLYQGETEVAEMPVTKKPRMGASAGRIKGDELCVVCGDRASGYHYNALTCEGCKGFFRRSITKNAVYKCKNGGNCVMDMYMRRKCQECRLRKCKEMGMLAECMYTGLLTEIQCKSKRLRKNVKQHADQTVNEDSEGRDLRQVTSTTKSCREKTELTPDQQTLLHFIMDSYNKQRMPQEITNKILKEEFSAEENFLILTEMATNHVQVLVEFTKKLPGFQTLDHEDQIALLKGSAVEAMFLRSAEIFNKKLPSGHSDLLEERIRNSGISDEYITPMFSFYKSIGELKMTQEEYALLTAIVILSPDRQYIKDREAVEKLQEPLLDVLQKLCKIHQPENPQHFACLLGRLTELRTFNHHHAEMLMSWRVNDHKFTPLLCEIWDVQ
Method in brief: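 Read-out was NanoLuc luminescence in culture medium, measured 5 min after adding coelenterazine. Cells were HEK293T stably carrying human FXR and an FXRE reporter, exposed to compound for 24 hr at 37 °C. Vehicle was 0.01% DMSO. EC50 was obtained from sigmoid fits of gradient dilutions.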

MRGPRX4 = MRGPRX4 (Homo sapiens, UniProt Q96LA9); assay: MRGPRX4 activation, Fluo-8 Ca2+ FLIPR assay in HEK293T cells stably expressing MRGPRX4; assay type: cell-based; set-up: key to MRGPRX4 activation, Average / MRGPRX4 activation, Ave.: fluorescence change dF/F0
MRGPRX4, sequence (Q96LA9 whole entry): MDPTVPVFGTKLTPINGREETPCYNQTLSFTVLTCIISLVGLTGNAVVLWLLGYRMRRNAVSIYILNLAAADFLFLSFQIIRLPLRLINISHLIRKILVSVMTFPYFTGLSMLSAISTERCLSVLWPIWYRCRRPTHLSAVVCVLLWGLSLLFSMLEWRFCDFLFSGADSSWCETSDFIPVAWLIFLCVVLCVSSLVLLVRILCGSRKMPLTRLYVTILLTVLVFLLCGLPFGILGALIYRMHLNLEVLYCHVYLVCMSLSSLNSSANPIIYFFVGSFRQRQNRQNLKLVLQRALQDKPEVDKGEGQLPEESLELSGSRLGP
Method in brief: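 Response measured as dF/F0: 30 s baseline, then 150 s after compound addition on FLIPR Tetra, in HHBS after 40-60 min room-temperature loading with 2 μM Fluo-8 AM.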

[1] = FXR activation, HEK293T FXRE-NanoLuc reporter, 24 hr
[2] = FXR activation, HEK293T FXRE-NanoLuc reporter, 24 hr, read-out: EC50
[3] = MRGPRX4 activation, Ca2+ fluorescence, no activation in tested range reported as III, read-out: Activity (EC50 μM)

SMILES	Efficacy (maximum measured induction of NanoLuc, normalized to CDCA set as 100%) (human FXR (NR1H4); [1])	EC50 (human FXR (NR1H4); [2]) [µM]	MRGPRX4 activation, Average (MRGPRX4; E3-9, Conc. (Log[M]) −4.0)	MRGPRX4 activation, Average (MRGPRX4; E3-9, Conc. (Log[M]) −4.5)	MRGPRX4 activation, Average (MRGPRX4; E3-9, Conc. (Log[M]) −5.0)	MRGPRX4 activation, Average (MRGPRX4; E3-9, Conc. (Log[M]) −5.4)	MRGPRX4 activation, Average (MRGPRX4; E3-9, Conc. (Log[M]) −5.9)	MRGPRX4 activation, Average (MRGPRX4; E3-9, Conc. (Log[M]) −6.4)	MRGPRX4 activation, Average (MRGPRX4; E3-9, Conc. (Log[M]) −6.9)	MRGPRX4 activation, Average (MRGPRX4; E3-9, Conc. (Log[M]) −7.3)	MRGPRX4 activation, Average (MRGPRX4; E3-9, Conc. (Log[M]) −7.8)	MRGPRX4 activation, Average (MRGPRX4; E3-9, Conc. (Log[M]) −8.3)	EC50 (MRGPRX4; [3]) [µM]	other results
[2H]C1CC[C@@]2(C)[C@@H](C1)[C@@H](CC)[C@@H](O)[C@@H]1[C@@H]2CC[C@]2(C)[C@@H]([C@H](C)CCC(=O)O)CC[C@@H]12 (some centres unmarked) [13-1]	C (100%<efficacy <=300%)	< 1	0.104	−0.009	0.013	0.013	0.018	0.015	0.018	0.013	0.010	0.013	> 100	–
[2H]C1CC[C@@]2(C)[C@@H](C1)[C@@H](CC)[C@@H](O)[C@@H]1[C@@H]2CC[C@]2(C)[C@@H]([C@H](C)CCNC(=O)NS(=O)(=O)c3ccc(C(C)(C)CF)cc3)CC[C@@H]12 (some centres unmarked) [13-2]	A (efficacy >400%)	< 1	–	–	–	–	–	–	–	–	–	–	> 100	MRGPRX4 activation, Ave. (MRGPRX4; E3-7, Conc. (Log[M]) −4): −0.054; MRGPRX4 activation, Ave. (MRGPRX4; E3-7, Conc. (Log[M]) −4.5): −0.054; MRGPRX4 activation, Ave. (MRGPRX4; E3-7, Conc. (Log[M]) −5): −0.027; MRGPRX4 activation, Ave. (MRGPRX4; E3-7, Conc. (Log[M]) −5.5): −0.027; MRGPRX4 activation, Ave. (MRGPRX4; E3-7, Conc. (Log[M]) −6): −0.027; MRGPRX4 activation, Ave. (MRGPRX4; E3-7, Conc. (Log[M]) −7): 0.000
[2H]C1([2H])CC[C@@]2(C)[C@@H](C1)[C@@H](CC)[C@@H](O)[C@@H]1[C@@H]2CC[C@]2(C)[C@@H]([C@H](C)CCN=C=S)CC[C@@H]12 [14-2]	C (100%<efficacy <=300%)	–	0.090	0.027	0.027	0.030	0.020	0.013	0.013	0.013	0.010	0.010	–	EC50 (human FXR (NR1H4)): > 10 µM; EC50 (MRGPRX4): > 100 µM
